Experimental data as given in article PMC7559897, “Designed Antimicrobial Peptides Against Trauma-Related Cutaneous Invasive Fungal Wound Infections” (Journal of Fungi, 2020).
Values after ≈ are worked out from the molar mass of the structure shown. Bridge positions count the residues as written; N and C are the ends. Square brackets hold non-standard residues; d marks the D form. Ends that are not written are not given here. Peptide text beside a SMILES is read from it. Orn = NCCC[C@H](N)C(=O)O

Key:
A. baumannii 6838 = type: cell-based, Acinetobacter baumannii; conditions: 6838, 24 h
Method: (§1) Assays were performed by Trideum Biosciences (Frederick, MD, USA). Isolates were thawed from −80 °C storage and sub-cultured on trypticase soy agar plates at 37 °C prior to experimentation. A single colony was aseptically picked from the agar plate and released in 30 mL trypticase soy broth and incubated overnight at 37 °C incubator. Following which the bacterial culture was diluted to approximately 10^6 colony forming units (CFU)/mL using 2X cation adjusted Mueller–Hinton broth and added to the dAMP solutions (0, 2, 4, 8, 16, 32, 64, and 128 μg/mL) which had been formulated in water at 256 μg/mL and then serially diluted in media on 96-well pates. For fungal evaluation, potato dextrose broth and potato dextrose agar plates were used. The treated cultures were then incubated for 24 h at 37 °C and pathogen growth was measured by absorbance at 600 nm. Four replicas were included for each dAMP concentration. Each MIC was assigned to the lowest test agent concentration resulting in at least three out of four wells showing no growth based on an optical density (OD) reading of <0.1.

A. baumannii 6043 = type: cell-based, Acinetobacter baumannii; conditions: 6043, 24 h
Method: as §1

A. baumannii ATCC 17978 = type: cell-based, Acinetobacter baumannii; conditions: ATCC 17978, 24 h
Method: as §1

[1] = tested on: Aspergillus flavus MYA-1004; type: cell-based; conditions: 24 h
Method: as §1

[2] = tested on: Aspergillus flavus MYA-3651; type: cell-based; conditions: 24 h
Method: as §1

E. cloacae 6054 = type: cell-based; conditions: 6054, 24 h
Method: as §1

[3] = tested on: Absidia corymbifera NRRL 6251; type: cell-based; conditions: NRRL 6251, 24 h
Method: as §1

[4] = tested on: Fusarium solani NRRL 28548; type: cell-based; conditions: NRRL 28548, 24 h
Method: as §1

Candida albicans Y-6359 = type: cell-based; conditions: Y-6359, 24 h
Method: as §1

[5] = tested on: Mucor circinelloides NRRL 3631; type: cell-based; conditions: NRRL 3631, 24 h
Method: as §1

[6] = tested on: Candida parapsilosis Y-1761; type: cell-based; conditions: Y-1761, 24 h
Method: as §1

Candida krusei Y-27803 = type: cell-based; conditions: Y-27803, 24 h
Method: as §1

Candida krusei Y-27825 = type: cell-based; conditions: Y-27825, 24 h
Method: as §1

[7] = tested on: Aspergillus fumigatus 9648; type: cell-based; conditions: 9648, 24 h
Method: as §1

[8] = tested on: Candida parapsilosis Y-1763; type: cell-based; conditions: Y-1763, 24 h
Method: as §1

Candida albicans Y-326 = type: cell-based; conditions: Y-326, 24 h
Method: as §1

[9] = tested on: Aspergillus fumigatus 9651; type: cell-based; conditions: 9651, 24 h
Method: as §1

E. cloacae 6053 = type: cell-based; conditions: 6053, 24 h
Method: as §1

S. epidermis ATCC 51625 = type: cell-based; conditions: ATCC 51625, 24 h
Method: as §1

K. pneumonia 6069 = type: cell-based, Klebsiella pneumoniae; conditions: 24 h
Method: as §1

K. pneumonia ATCC 10031 = type: cell-based, Klebsiella pneumoniae; conditions: ATCC 10031, 24 h
Method: as §1

MRSA 6313 = type: cell-based, Staphylococcus aureus; conditions: 6313, 24 h
Method: as §1

S. aureus 6061 = type: cell-based, Staphylococcus aureus; conditions: 6061, 24 h
Method: as §1

MRSA ATCC 33592 = type: cell-based, Staphylococcus aureus; conditions: ATCC 33592, 24 h
Method: as §1

S. aureus B-767 = type: cell-based, Staphylococcus aureus; conditions: B-767, 24 h
Method: as §1

MRSA 6381 = type: cell-based, Staphylococcus aureus; conditions: 6381, 24 h
Method: as §1

P. aeruginosa ATCC 27853 = type: cell-based, Pseudomonas aeruginosa; conditions: ATCC 27853, 24 h
Method: as §1

P. aeruginosa ATCC 19660 = type: cell-based, Pseudomonas aeruginosa; conditions: ATCC 19660, 24 h
Method: as §1

P. aeruginosa 6186 = type: cell-based, Pseudomonas aeruginosa; conditions: 6186, 24 h
Method: as §1

[10] = tested on: vulvovaginal candidiasis infection; conditions: rats with vulvovaginal candidiasis, oral; cited from earlier work
Excerpt: The dAMPs RP504, RP554 and RP557 were thus tested for their ability to treat a rodent vulvovaginal candidiasis infection. […] A daily dose with a 2% concentration lowered the CFU/sample by more than 4 logs compared to the con ...

Row | Molecule | MIC against A. baumannii 6838 (A. baumannii 6838) [µg/mL] | MIC against A. baumannii 6043 (A. baumannii 6043) [µg/mL] | MIC against A. baumannii ATCC 17978 (A. baumannii ATCC 17978) [µg/mL] | MIC against Aspergillus flavus MYA-1004 [1] [µg/mL] | MIC against Aspergillus flavus MYA-3651 [2] [µg/mL] | MIC against E. cloacae 6054 (E. cloacae 6054) [µg/mL] | MIC against Absidia corymbifera NRRL 6251 [3] [µg/mL] | MIC against Fusarium solani NRRL 28548 [4] [µg/mL] | MIC against Candida albicans Y-6359 (Candida albicans Y-6359) [µg/mL] | MIC against Mucor circinelloides NRRL 3631 [5] [µg/mL] | MIC against Candida parapsilosis Y-1761 [6] [µg/mL] | MIC against Candida krusei Y-27803 (Candida krusei Y-27803) [µg/mL] | MIC against Candida krusei Y-27825 (Candida krusei Y-27825) [µg/mL] | MIC against Aspergillus fumigatus 9648 [7] [µg/mL] | MIC against Candida parapsilosis Y-1763 [8] [µg/mL] | MIC against Candida albicans Y-326 (Candida albicans Y-326) [µg/mL] | MIC against Aspergillus fumigatus 9651 [9] [µg/mL] | MIC against E. cloacae 6053 (E. cloacae 6053) [µg/mL] | MIC against S. epidermis ATCC 51625 (S. epidermis ATCC 51625) [µg/mL] | MIC against K. pneumonia 6069 (K. pneumonia 6069) [µg/mL] | further results
1 | CSCC[C@@H]1NC(=O)[C@H](C(C)C)NC(=O)[C@H](C(C)C)NC(=O)[C@H](CC(C)C)NC(=O)[C@H](Cc2c[nH]c3ccccc23)NC(=O)[C@H](C(C)C)NC(=O)[C@@H](NC(=O)[C@H](Cc2c[nH]c3ccccc23)NC(=O)[C@@H](N)CCCNC(=N)N)CSSC[C@@H](C(=O)N[C@@H](CCCCN)C(=O)N[C@@H](CCCCN)C(N)=O)NC1=O [RP513] (H-RWCVWLVVMCKK-NH2; disulfide 3-10) | 128 (≈ 82.7 µM) | 64 (≈ 41.3 µM) | >128 | >128 | 128 (≈ 82.7 µM) | >128 | 32 (≈ 20.7 µM) | 16 (≈ 10.3 µM) | 64 (≈ 41.3 µM) | 32 (≈ 20.7 µM) | >128 | 64 (≈ 41.3 µM) | 64 (≈ 41.3 µM) | 128 (≈ 82.7 µM) | >128 | 64 (≈ 41.3 µM) | >128 | >128 | >128 | 128 (≈ 82.7 µM) | MIC against K. pneumonia ATCC 10031 (K. pneumonia ATCC 10031): 128 µg/mL (≈ 82.7 µM); MIC against MRSA 6313 (MRSA 6313): >128 µg/mL; MIC against S. aureus 6061 (S. aureus 6061): >128 µg/mL; MIC against MRSA ATCC 33592 (MRSA ATCC 33592): >128 µg/mL; MIC against S. aureus B-767 (S. aureus B-767): >128 µg/mL; MIC against MRSA 6381 (MRSA 6381): >128 µg/mL; MIC against P. aeruginosa ATCC 27853 (P. aeruginosa ATCC 27853): >128 µg/mL; MIC against P. aeruginosa ATCC 19660 (P. aeruginosa ATCC 19660): >128 µg/mL; MIC against P. aeruginosa 6186 (P. aeruginosa 6186): >128 µg/mL
2 | CC[C@H](C)[C@H](NC(=O)[C@H](CCCN)NC(=O)[C@H](C)NC(=O)[C@H](CCCN)NC(=O)[C@H](CC(C)C)NC(=O)[C@H](CCCCN)NC(=O)[C@@H](NC(=O)[C@H](CCCCN)NC(=O)[C@@H](NC(=O)[C@H](CCCN)NC(=O)[C@H](C)NC(=O)[C@H](CCCN)NC(=O)[C@H](CC(C)C)NC(=O)[C@H](CCCN)NC(=O)[C@@H](N)Cc1ccccc1)[C@@H](C)CC)C(C)C)C(=O)N[C@@H](CCCN)C(=O)N[C@@H](CC(C)C)C(N)=O [RP555] (H-F[Orn]L[Orn]A[Orn]IKVKL[Orn]A[Orn]I[Orn]L-NH2) | 4 (≈ 2.09 µM) | 16 (≈ 8.37 µM) | 4 (≈ 2.09 µM) | >128 | 128 (≈ 66.9 µM) | 4 (≈ 2.09 µM) | 4 (≈ 2.09 µM) | 2 (≈ 1.05 µM) | 32 (≈ 16.7 µM) | 64 (≈ 33.5 µM) | 32 (≈ 16.7 µM) | 32 (≈ 16.7 µM) | 32 (≈ 16.7 µM) | 64 (≈ 33.5 µM) | 16 (≈ 8.37 µM) | 32 (≈ 16.7 µM) | 64 (≈ 33.5 µM) | 2 (≈ 1.05 µM) | 2 (≈ 1.05 µM) | 16 (≈ 8.37 µM) | MIC against K. pneumonia ATCC 10031 (K. pneumonia ATCC 10031): 4 µg/mL (≈ 2.09 µM); MIC against MRSA 6313 (MRSA 6313): 16 µg/mL (≈ 8.37 µM); MIC against S. aureus 6061 (S. aureus 6061): 16 µg/mL (≈ 8.37 µM); MIC against MRSA ATCC 33592 (MRSA ATCC 33592): 8 µg/mL (≈ 4.18 µM); MIC against S. aureus B-767 (S. aureus B-767): 8 µg/mL (≈ 4.18 µM); MIC against MRSA 6381 (MRSA 6381): 16 µg/mL (≈ 8.37 µM); MIC against P. aeruginosa ATCC 27853 (P. aeruginosa ATCC 27853): 4 µg/mL (≈ 2.09 µM); MIC against P. aeruginosa ATCC 19660 (P. aeruginosa ATCC 19660): 8 µg/mL (≈ 4.18 µM); MIC against P. aeruginosa 6186 (P. aeruginosa 6186): 4 µg/mL (≈ 2.09 µM)
3 | OC(Cn1cncn1)(Cn1cncn1)c1ccc(F)cc1F [fluconazole, reference compound] |  |  |  |  |  |  |  |  |  |  |  |  |  |  |  |  |  |  |  |  | reduction in tissue candidiasis infection (in words) [10]: non-significant reduction
4 | FKLRAKIKVRLRAKIKL [D4E1, reference compound] | 8 | >128 | 16 | 128 | 128 | 4 | 2 | 2 | 64 | 128 | 64 | 64 | 64 | 128 | 64 | 64 | 64 | 8 | 4 | 16 | MIC against K. pneumonia ATCC 10031 (K. pneumonia ATCC 10031): 32 µg/mL; MIC against MRSA 6313 (MRSA 6313): 8 µg/mL; MIC against S. aureus 6061 (S. aureus 6061): 8 µg/mL; MIC against MRSA ATCC 33592 (MRSA ATCC 33592): 8 µg/mL; MIC against S. aureus B-767 (S. aureus B-767): 4 µg/mL; MIC against MRSA 6381 (MRSA 6381): 8 µg/mL; MIC against P. aeruginosa ATCC 27853 (P. aeruginosa ATCC 27853): 16 µg/mL; MIC against P. aeruginosa ATCC 19660 (P. aeruginosa ATCC 19660): 32 µg/mL; MIC against P. aeruginosa 6186 (P. aeruginosa 6186): 16 µg/mL
